Results: patent EP2236511A2, “LIGANDS OF ALPHA-ADRENOCEPTORS AND OF DOPAMINE, HISTAMINE, IMIDAZOLINE AND SEROTONIN RECEPTORS AND THE USE THEREOF” (priority 2007, dated 2009)
Where a name gives a salt, the structure may show the parent alone.

Experiments:
[1] = target: T1, recombinant human 5-HT2C receptor (Homo sapiens, UniProt P28335); assay: Radioligand binding to serotonin receptor 5-HT2C ([3H] Mesulergine, CHO-K1 membranes); settings: read-out: 5-HT2C % inhibition
T1 construct: expressed in transfected cells; host or cells: CHO-K1
T1 sequence (P28335 33-458): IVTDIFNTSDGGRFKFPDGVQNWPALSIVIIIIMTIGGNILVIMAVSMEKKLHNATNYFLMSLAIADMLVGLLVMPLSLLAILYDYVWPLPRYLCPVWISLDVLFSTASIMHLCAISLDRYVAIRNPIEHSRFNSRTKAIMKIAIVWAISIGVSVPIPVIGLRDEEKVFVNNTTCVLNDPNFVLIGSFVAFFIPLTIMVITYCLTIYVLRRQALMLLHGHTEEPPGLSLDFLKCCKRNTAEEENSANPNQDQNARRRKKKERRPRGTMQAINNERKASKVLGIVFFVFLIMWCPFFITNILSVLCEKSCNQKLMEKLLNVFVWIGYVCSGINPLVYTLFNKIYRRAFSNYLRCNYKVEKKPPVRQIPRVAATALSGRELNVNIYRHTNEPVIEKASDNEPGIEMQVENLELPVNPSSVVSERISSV
From the text: J Neurochem. 69: 1449 - 1458, 1997]. […] SB242084 is used as positive control.

human α1D receptor = target: T2, human α1D receptor (Homo sapiens, UniProt P25100); assay: Radioligand binding to adrenergic receptor α1D ([3H] Prazosin, HEK-293 membranes); settings: for inhibition at 10 µM: read-out: α-Adrenoceptor, % inhibition α1D; for α-Adrenoceptor, % inhibition α1D: 10 µM ligand
T2 construct: expressed in transfected cells; host or cells: HEK-293
T2 sequence (P25100 1-572): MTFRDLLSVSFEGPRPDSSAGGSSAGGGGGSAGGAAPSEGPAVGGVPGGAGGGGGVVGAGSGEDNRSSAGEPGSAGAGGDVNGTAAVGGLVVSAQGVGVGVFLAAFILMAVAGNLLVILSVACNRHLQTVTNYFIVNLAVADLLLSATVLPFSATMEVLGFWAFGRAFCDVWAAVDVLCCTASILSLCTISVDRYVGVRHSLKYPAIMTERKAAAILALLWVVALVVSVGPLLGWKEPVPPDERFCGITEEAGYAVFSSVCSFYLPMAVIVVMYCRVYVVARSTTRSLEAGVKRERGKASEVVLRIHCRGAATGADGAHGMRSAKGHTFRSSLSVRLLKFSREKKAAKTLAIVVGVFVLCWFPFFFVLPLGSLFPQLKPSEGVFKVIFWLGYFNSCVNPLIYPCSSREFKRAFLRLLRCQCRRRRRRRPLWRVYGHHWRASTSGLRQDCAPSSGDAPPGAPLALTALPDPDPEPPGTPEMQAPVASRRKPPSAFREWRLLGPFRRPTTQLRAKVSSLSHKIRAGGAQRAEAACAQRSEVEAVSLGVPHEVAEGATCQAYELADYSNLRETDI
From the text: 6-C. […] For this purpose sDNA of human α1D receptor is expressed in HEK-293 cells, as it was described in [TL Theroux, TA Esbenshade, RD Peavy and KP Minneman. Coupling efficiencies of human alpha 1-adrenergic receptor subtypes: titration of receptor density and responsiveness with inducible and repressible expression vectors. Mol Pharmacol.; 50: 1376-1387, 1996]. […] Characterization of an α1D-adrenoceptor mediating the contractile response of rat aorta to noradrenaline. […] Prazosin is used as positive control.

human α2A receptor = target: T3, human α2A receptor (Homo sapiens, UniProt P08913); assay: Radioligand binding to adrenergic receptor α2A ([3H] MK-912, Sf9 membranes)
T3 construct: expressed in transfected cells; host or cells: Sf9
T3 sequence (P08913 1-465): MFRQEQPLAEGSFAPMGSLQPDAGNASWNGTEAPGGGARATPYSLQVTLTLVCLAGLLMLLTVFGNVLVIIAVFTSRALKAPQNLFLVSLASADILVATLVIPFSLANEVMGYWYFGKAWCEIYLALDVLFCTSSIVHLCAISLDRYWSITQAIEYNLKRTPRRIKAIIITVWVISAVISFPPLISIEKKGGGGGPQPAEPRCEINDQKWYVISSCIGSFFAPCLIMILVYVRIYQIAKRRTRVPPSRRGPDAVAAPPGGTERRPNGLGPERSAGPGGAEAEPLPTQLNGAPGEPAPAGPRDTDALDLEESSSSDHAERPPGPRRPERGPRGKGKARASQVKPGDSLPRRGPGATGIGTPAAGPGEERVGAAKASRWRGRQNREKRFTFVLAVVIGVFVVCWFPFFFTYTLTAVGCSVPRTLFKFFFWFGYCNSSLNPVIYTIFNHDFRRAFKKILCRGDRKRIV
From the text: For this purpose sDNA of human α2A receptor is expressed in Sf9 cells, as described in [Uhlen S, Porter AC and Neubig RR. […] J Pharmacol ExpTher. […] J Pharmacol ExpTher. […] Yohimbine is used as positive control.

[2] = target: T4, recombinant human 5-HT6 receptor (Homo sapiens, UniProt P50406); assay: Radioligand binding to serotonin receptor 5-HT6 ([3H] Lysergic acid diethylamide, HeLa membranes); settings: for inhibition at 1 µM: read-out: 5-HT6 % inhibition
T4 construct: expressed in transfected cells; host or cells: HeLa
T4 sequence (P50406 whole entry): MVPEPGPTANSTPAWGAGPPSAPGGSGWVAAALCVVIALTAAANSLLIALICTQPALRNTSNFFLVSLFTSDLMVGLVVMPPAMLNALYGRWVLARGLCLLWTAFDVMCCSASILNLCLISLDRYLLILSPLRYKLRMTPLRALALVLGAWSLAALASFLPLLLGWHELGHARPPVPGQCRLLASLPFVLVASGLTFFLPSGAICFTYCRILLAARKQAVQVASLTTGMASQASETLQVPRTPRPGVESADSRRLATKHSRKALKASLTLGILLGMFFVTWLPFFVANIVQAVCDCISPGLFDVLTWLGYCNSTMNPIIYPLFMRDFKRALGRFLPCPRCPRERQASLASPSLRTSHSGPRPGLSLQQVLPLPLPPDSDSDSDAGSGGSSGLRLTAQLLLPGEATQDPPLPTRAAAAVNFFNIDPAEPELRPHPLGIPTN
From the text: Mol Pharmacol. 43:320-327, 1993]. […] Methiothepin is used as positive control.

imidazoline receptor I2 = assay: Radioligand binding to imidazoline receptor I2 ([3H] Idazoxan, rat brain membranes); settings: 10 µM ligand
Procedure: For this purpose membrane species are prepared from rat (Wistar) brain homogenates by homogenization of them in glass homogenizer with the subsequent separation of plasmatic membranes from cell nuclei, mitochondrias and cell wreckages by differential centrifugation. […] After incubation the samples are filtered in vacuo on glass-microfiber filters G/F (Millipor, USA), filters are washed three times with cold solution of medium and radioactivity is measured by scintillation counter MicroBeta 340 (Perkin Elmer, USA). […] Idazoxan is used as positive control.
The tested compounds' binding to the receptor is determined by their ability to displace the radioligand and expressed in percent of displacement (%I). Values of %I are calculated according to the following equation: %I = (TA-CA)/(TA-NA)*100, [formula] wherein: TA - is the overall radioactivity in the presence of radioligand only, CA - is the radioactivity in the presence of radioligand and tested compound and NA - is a radioactivity in the presence of radioligand and Idazoxan (1 µM).

adrenergic receptor α1B = target: T5, adrenergic receptor α1B (Rattus norvegicus, UniProt P15823); assay: Radioligand binding to adrenergic receptor α1B ([3H] Prazosin, rat liver membranes); settings: for α-Adrenoceptor, % inhibition α1B: 10 µM ligand
T5 construct: membrane species from rat liver (rat of Wistar breed) are prepared; from tissue; host or cells: rat (Wistar) liver
T5 sequence (P15823 1-515): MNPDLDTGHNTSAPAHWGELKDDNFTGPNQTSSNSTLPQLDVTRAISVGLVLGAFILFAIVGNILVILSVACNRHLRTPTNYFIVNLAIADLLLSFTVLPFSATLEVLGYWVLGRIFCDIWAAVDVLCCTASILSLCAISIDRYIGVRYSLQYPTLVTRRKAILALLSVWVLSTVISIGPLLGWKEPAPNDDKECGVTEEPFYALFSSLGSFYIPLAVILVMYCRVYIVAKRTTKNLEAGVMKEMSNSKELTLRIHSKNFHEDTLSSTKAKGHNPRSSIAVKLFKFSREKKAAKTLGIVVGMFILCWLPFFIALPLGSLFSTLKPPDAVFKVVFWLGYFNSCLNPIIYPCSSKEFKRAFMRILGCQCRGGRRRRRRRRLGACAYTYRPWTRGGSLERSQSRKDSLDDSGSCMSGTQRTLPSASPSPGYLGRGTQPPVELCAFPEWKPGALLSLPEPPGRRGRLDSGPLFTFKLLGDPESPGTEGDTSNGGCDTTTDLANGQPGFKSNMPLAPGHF
From the text: Species heterogeneity of hepatic α1A-, α1B-, and α1C-subtypes. Biochem Biophys Res Commun. […] Prazosin is used as positive control.

adrenergic receptor α1A = target: T6, adrenergic receptor α1A (Rattus norvegicus, UniProt P43140); assay: Radioligand binding to adrenergic receptor α1A ([3H] Prazosin, rat submaxillary gland membranes); settings: for α-Adrenoceptor, % inhibition α1A: 10 µM ligand
T6 construct: membrane species from rat submaxillary glands (rat of Wistar breed) are prepared; from tissue; host or cells: rat (Wistar) submaxillary gland
T6 sequence (P43140 1-466): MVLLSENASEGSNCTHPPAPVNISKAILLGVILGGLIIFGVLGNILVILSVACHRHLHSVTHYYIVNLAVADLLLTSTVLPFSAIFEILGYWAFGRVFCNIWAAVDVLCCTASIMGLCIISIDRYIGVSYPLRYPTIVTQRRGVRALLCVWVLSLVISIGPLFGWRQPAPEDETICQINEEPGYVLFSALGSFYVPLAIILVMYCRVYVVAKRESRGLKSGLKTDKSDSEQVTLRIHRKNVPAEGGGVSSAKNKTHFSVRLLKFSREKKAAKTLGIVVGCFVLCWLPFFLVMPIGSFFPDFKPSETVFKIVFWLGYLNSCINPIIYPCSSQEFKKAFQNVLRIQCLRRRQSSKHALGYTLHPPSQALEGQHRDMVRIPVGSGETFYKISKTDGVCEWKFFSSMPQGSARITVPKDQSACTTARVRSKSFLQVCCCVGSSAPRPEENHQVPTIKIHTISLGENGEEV
Procedure: Determination of investigated compounds' binding to α1A receptor was carried out according to the method described in [Michel AD, Loury DN and Whiting R1. Identification of a single α1A-adrenoceptor corresponding to the α1A-subtype in rat submaxillary gland. […] Prazosin is used as positive control.

human H1 receptor = target: T7, human H1 receptor (Homo sapiens, UniProt P35367); assay: Radioligand binding to histamine receptor H1 ([3H] Pyrilamine, CHO-K1 membranes); settings: read-out: Histamine receptors, % inhibition H1, 10 µM ligand
T7 construct: expressed in transfected cells; host or cells: CHO-K1
T7 sequence (P35367 whole entry): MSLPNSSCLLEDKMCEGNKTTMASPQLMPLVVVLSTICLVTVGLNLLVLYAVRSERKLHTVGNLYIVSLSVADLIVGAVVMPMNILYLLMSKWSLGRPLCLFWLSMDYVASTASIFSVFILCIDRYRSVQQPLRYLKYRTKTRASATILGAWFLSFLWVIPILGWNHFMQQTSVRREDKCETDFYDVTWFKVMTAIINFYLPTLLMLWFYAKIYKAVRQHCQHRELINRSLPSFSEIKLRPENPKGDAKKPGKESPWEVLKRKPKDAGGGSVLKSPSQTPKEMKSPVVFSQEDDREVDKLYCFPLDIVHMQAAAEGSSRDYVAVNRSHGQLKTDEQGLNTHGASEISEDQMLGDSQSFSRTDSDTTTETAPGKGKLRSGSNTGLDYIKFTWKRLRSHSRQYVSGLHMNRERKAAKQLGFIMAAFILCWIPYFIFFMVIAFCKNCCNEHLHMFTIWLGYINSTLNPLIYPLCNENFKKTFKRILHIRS
From the text: Biochem Biophys Res Comm. 197(3): 1601-1608, 1993]. […] Biochem Biophys Res Comm. 197(3): 1601-1608, 1993].
Pyrilamine is used as positive control.

[3] = target: T8, recombinant human 5-HT2A receptor (Homo sapiens, UniProt P28223); assay: Radioligand binding to serotonin receptor 5-HT2A ([3H] Ketanserin, CHO-K1 membranes)
T8 construct: expressed in transfected cells; host or cells: CHO-K1
T8 sequence (P28223 whole entry): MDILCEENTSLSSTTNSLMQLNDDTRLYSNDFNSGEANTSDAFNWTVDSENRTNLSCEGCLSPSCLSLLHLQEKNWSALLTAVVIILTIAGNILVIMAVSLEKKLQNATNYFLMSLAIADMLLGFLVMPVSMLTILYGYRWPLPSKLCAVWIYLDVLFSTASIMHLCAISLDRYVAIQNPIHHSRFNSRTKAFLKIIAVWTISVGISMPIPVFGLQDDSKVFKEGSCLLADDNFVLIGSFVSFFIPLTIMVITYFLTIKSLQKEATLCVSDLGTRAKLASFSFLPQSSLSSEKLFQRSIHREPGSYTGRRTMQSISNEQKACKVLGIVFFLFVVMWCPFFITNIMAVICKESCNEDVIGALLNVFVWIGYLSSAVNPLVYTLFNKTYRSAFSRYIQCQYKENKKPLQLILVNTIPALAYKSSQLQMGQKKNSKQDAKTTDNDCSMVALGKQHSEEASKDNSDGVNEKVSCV
From the text: 9-C. […] J Neurochem. […] Ketanserin is used as positive control.

human H2 receptor = target: T9, human H2 receptor (Homo sapiens, UniProt P25021); assay: Radioligand binding to histamine receptor H2 ([125I] Aminopotentidine, CHO-K1 membranes); settings: read-out: Histamine receptors, % inhibition H2
T9 construct: expressed in transfected cells; host or cells: CHO-K1
T9 sequence (P25021 whole entry): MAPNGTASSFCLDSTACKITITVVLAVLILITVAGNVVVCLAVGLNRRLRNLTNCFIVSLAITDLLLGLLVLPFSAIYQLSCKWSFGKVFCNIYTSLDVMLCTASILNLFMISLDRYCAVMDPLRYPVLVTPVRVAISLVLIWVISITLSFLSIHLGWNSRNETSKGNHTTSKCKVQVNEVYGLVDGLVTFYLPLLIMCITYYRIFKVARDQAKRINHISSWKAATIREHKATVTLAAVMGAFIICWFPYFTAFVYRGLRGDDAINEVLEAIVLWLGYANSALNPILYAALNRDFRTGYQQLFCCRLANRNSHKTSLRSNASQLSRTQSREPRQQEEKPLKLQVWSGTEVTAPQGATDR
From the text: Proc Natl Acad Sci USA. 87(5): 1658-1662, 1990]. […] Proc Natl Acad Sci USA. 87(5): 1658-1662, 1990]. […] Tiotidine is used as positive control.

[4] = target: T10, recombinant human 5-HT2B receptor (Homo sapiens, UniProt P41595); assay: Radioligand binding to serotonin receptor 5-HT2B ([3H] Lysergic acid diethylamide, CHO-K1 membranes)
T10 construct: expressed in transfected cells; host or cells: CHO-K1
T10 sequence (P41595 whole entry): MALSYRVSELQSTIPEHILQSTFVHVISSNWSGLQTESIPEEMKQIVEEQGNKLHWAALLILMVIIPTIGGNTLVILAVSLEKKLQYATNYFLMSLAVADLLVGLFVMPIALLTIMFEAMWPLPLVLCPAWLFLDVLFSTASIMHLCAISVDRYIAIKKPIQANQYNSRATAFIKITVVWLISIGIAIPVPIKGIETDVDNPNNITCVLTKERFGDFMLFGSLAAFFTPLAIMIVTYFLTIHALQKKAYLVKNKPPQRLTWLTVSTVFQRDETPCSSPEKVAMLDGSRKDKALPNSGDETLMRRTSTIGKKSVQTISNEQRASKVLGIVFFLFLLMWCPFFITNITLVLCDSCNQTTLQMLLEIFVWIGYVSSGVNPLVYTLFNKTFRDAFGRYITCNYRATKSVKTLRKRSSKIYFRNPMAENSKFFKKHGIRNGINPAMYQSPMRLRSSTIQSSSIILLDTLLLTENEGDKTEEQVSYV
Procedure: For this purpose membrane species are prepared from CHO-K1 cells comprising recombinant human 5-HT2B receptor by homogenization of recombinant cells in glass homogenizer with the subsequent separation of plasmatic membranes from cell nuclei, mitochondrias and cell wreckages by differential centrifugation. […] After incubation the samples are filtered in vacuo on glass-microfiber filters G/F (Millipor, USA), filters are washed three times with cold solution of medium and radioactivity is measured by scintillation counter MicroBeta 340 (Perkin Elmer, USA). […] Ketanserin is used as positive control. The tested compounds' binding to the receptor is determined by their ability to displace the radioligand and is expressed in percent of displacement (%I). Values of %I are calculated according to the following equation: %I = (TA-CA)/(TA-NA)*100, [formula] wherein: TA - is the overall radioactivity in the presence of radioligand only, CA - is the radioactivity in the presence of radioligand and tested compound and NA - is the radioactivity in the presence of radioligand and Serotonin (10 µM).

Structure (SMILES) | inhibition at 1 µM [1] [%] | inhibition at 10 µM (human α1D receptor) [%] | inhibition at 1 µM [2] [%] | % inhibition (imidazoline receptor I2) [%] | α-Adrenoceptor, % inhibition α1D (human α1D receptor) [%] | α-Adrenoceptor, % inhibition α1B (adrenergic receptor α1B) [%] | α-Adrenoceptor, % inhibition α1A (adrenergic receptor α1A) [%] | other results
Cc1ccc2c(c1)c1c(n2CCc2cccnc2)CCCN(C)C1 [1.2.2(3-2)·2HCl] | 90 | 60 | 79 | 63 |  |  |  | inhibition at 10 µM (human α2A receptor; read-out: α-Adrenoceptor, % inhibition α2A): 71%; inhibition at 10 µM (adrenergic receptor α1B; read-out: α-Adrenoceptor, % inhibition α1B): 75%; inhibition at 10 µM (adrenergic receptor α1A; read-out: α-Adrenoceptor, % inhibition α1A): 61%
Cc1ccc2c(c1)c1c(n2CCc2ccc(C)nc2)CCCN(C)C1 [1.2.2(4-1)] |  |  |  | 80 | 68 | 85 | 80 | α-Adrenoceptor, % inhibition α2A (human α2A receptor; 10 µM ligand): 79%
Cc1ccc2c(c1)c1c(n2CCc2ccncc2)CCCN(C)C1 [1.2.2(5-2)] |  |  |  | 72 | 68 | 89 | 74 | 
Cc1ccc(S(=O)(=O)n2c3c(c4cc(C)ccc42)CN(C)CCC3)cc1 [1.8.1(3)·HCl] | 90 | 55 | 93 | 17 |  |  |  | inhibition at 10 µM (human H1 receptor): 95%; nH ([3]; 5-HT2A): 1.01; inhibition at 1 µM ([3]; ligand concentration 1 µM): 100%; inhibition at 10 µM (human H2 receptor): 82%; nH ([4]; 5-HT2B): 0.784; inhibition at 1 µM ([4]; read-out: 5-HT2B % inhibition): 101%; IC50 [2]: 535 nM; Ki [2]: 307 nM; nH ([2]; 5-HT6): 1.07; nH ([2]; last block of Table 11: receptor printed 5-HT6 in r18, cell blank in r19-r21): 0.665
